Data: patent US8647827B2, “Fluorescent substrates for neurotransmitter transporters” (Vanderbilt University, priority 2006, dated 2014)
Read-outs that look alike come from different tables or passages of the source.

Assays:
DAT [1] = biological target: DAT (Homo sapiens, UniProt Q01959); conditions: previously reported, U.S. Publication No. 20040115703; cited from earlier work
NET [2] = biological target: T1, NET (Homo sapiens, UniProt P23975); conditions: previously reported, U.S. Publication No. 20040115703; cited from earlier work
SERT [3] = biological target: T2, SERT (Homo sapiens, UniProt P31645); conditions: cited from earlier work
Target sequence in this assay (P31645 whole entry, species assumed): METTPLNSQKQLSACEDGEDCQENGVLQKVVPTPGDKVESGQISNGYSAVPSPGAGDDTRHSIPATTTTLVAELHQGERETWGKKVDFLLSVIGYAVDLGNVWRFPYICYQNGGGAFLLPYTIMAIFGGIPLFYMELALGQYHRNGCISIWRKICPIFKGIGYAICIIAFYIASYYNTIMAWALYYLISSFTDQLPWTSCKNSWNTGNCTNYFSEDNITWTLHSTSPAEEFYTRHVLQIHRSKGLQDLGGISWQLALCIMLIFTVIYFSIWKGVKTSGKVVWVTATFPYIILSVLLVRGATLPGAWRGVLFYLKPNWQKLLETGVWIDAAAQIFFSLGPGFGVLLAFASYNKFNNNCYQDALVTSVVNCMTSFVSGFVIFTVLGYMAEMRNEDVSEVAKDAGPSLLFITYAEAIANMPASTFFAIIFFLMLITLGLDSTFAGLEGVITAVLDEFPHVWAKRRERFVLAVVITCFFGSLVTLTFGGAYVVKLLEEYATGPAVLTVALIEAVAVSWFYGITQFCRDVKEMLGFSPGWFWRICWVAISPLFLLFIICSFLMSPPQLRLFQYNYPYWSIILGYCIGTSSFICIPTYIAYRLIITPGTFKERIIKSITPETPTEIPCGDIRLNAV

SERT [4] = biological target: T2, SERT; experiment: [3H]5-HT uptake inhibition in LLC cells stably expressing hSERT; format: cell-based; design: expressed in transfected cells; conditions: [3H]5-HT 30 nM, 5 min at 37° C.
Protocol: FIG. 2—[^3H]5-HT uptake inhibition by IDT307 of SERT. […] LLC cells stably expressing hSERT were incubated with [^3H]5-HT (30 nM) in the presence of increasing concentrations of IDT307 (10^−12 to 10^−3) for 5 min at 37° C. Specific uptake was defined as total uptake minus uptake in the presence of the inhibitor paroxetine 1 μM.
Target sequence in this assay (P31645 whole entry): as the sequence (P31645 whole entry, species assumed) above

DAT [5] = biological target: T3, DAT (Rattus norvegicus, UniProt P23977); experiment: IDT307 accumulation/transport by fluorescence, DAT; format: cell-based
T3 construct: expressed in transfected cells; host or cells: LLC cells
Protocol: (§1) FIG. 7—Imaging IDT307 with Zeiss LSM-510 Confocal Meta Detector. LLC Cells expressing rDAT were exposed to 10 μM IDT307 for 1 hr before rinsing with KRH buffer and imaging with a Zeiss LSM-510 confocal microscope using the meta detector. Quantification of fluorescence at each wavelength for selected regions of interest was performed using ImageJ analysis software.
(§2) 4-(4-(dimethylamino)phenyl)-1-methylpyridinium iodide, referred to herein as IDT307, is a dye with optical activity that has been discussed by a number of different researchers (Bulgarevich et al., 1992; Kuo, 1978; Coe et al., 2003; Zauhar et al., 1995; Lyapustina et al., 1993). […] IDT307 fluorescent microscopy permits localization of transport activity in single cells and neuronal processes. The IDT307 fluorescent microscopy methods of the invention also permits analysis of many cells, while retaining information about single cells. The IDT307 fluorescence assays of the invention provide detailed mechanistic information about transport. For example, temporal and spatial resolution of transport, transport kinetics, affinity for substrate, turnover rates, surface expression, and binding constants may be measured. Furthermore, features such as voltage dependence of neurotransmitter accumulation can be assessed under voltage clamp using IDT307 fluorescent microscopy.

SERT [6] = biological target: T2, SERT; experiment: IDT307 accumulation/transport by fluorescence, SERT; format: cell-based; design: expressed in transfected cells
Protocol: FIG. 3—IDT307 accumulation using a FlexStation™ fluorimeter. IDT307 accumulation using the FlexStation fluorimeter (excitation 440 nm/emission filter 595 nm). LLC non-transfected and hSERT expressing (control) cells were cultured in separate wells of a 96-well plate until confluent. The accumulation of IDT307 (10 μM) in these wells was then monitored in the presence and absence of paroxetine (1 μM) using the FlexStation.
FIGS. 5A-C—Kinetics of IDT307 accumulation in hSERT using the FlexStation™ fluorimeter. Kinetics of IDT307 accumulation in hSERT using the FlexStation fluorimeter. hSERT expressing cells were cultured in wells of a 96-well plate until confluent. […] SERT specific accumulation for each concentration of IDT307 was then calculated from specific uptake values (total uptake—inhibitor treated uptake).
4-(4-(dimethylamino)phenyl)-1-methylpyridinium iodide, referred to herein as IDT307, is a dye with optical activity that has been discussed by a number of different researchers (Bulgarevich et al., 1992; Kuo, 1978; Coe et al., 2003; Zauhar et al., 1995; Lyapustina et al., 1993). […] The IDT307 fluorescence assays of the invention provide detailed mechanistic information about transport. For example, temporal and spatial resolution of transport, transport kinetics, affinity for substrate, turnover rates, surface expression, and binding constants may be measured. […]
Target sequence in this assay (P31645 whole entry): as the sequence (P31645 whole entry, species assumed) above

NET [7] = biological target: T1, NET; experiment: IDT307 accumulation/transport by time-resolved fluorescence microscopy in HEK cells expressing hNET; format: cell-based; design: expressed in transfected cells; host or cells: HEK cells
From the text: as §2
Fluorescent microscopy is used to measure transport using IDT307 which is a fluorescent substrate for several neurotransmitter transporters. Cells that either endogenously or exogenously express a […] are isolated and plated on glass bottom Petri-dishes or multi-well plates that may typically be coated with poly-L-lysine or any other cell adhesive agent. Cells are typically cultured for three or more days. […]

[8] = Fluorescence spectra of intracellular IDT307; format: physicochemical
Protocol: as §1
FIG. 8—Fluorescence Spectra of Intracellular IDT307. IDT307 maximum absorption=420 nm, maximum emission=510 nm.

T1 sequence (P23975 whole entry): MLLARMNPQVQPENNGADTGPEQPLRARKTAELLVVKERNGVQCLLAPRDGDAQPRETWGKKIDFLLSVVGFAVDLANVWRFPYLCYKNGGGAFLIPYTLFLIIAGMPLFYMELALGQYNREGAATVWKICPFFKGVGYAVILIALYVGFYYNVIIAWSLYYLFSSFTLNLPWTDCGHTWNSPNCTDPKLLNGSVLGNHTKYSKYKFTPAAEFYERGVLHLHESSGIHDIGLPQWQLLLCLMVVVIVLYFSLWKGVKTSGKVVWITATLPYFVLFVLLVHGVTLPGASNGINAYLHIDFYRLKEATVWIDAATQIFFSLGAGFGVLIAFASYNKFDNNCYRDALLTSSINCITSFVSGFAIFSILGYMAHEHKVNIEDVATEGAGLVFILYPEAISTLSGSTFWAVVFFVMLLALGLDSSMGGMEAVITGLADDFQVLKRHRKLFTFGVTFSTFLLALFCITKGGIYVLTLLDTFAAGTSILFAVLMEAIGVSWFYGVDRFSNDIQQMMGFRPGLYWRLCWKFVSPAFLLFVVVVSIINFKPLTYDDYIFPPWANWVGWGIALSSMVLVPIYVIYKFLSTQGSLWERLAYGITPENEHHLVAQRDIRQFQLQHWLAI
T3 sequence (P23977 whole entry): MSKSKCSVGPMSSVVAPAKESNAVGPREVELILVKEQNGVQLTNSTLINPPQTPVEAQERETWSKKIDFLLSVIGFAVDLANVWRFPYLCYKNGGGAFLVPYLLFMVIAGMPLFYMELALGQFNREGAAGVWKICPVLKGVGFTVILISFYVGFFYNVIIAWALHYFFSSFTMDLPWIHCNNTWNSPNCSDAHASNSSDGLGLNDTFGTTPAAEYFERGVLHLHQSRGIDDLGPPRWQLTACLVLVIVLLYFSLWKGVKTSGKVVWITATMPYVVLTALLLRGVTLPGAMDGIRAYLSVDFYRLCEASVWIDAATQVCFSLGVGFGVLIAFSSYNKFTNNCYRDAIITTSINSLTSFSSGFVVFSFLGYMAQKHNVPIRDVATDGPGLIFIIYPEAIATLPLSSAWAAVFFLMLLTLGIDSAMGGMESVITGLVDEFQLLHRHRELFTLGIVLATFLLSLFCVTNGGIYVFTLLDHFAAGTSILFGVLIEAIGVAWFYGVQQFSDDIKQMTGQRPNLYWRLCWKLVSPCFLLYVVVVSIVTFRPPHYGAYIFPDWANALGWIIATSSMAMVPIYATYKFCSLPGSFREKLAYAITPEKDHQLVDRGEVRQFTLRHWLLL
Sequence of DAT (Homo sapiens, UniProt Q01959) (Q01959 whole entry, species assumed): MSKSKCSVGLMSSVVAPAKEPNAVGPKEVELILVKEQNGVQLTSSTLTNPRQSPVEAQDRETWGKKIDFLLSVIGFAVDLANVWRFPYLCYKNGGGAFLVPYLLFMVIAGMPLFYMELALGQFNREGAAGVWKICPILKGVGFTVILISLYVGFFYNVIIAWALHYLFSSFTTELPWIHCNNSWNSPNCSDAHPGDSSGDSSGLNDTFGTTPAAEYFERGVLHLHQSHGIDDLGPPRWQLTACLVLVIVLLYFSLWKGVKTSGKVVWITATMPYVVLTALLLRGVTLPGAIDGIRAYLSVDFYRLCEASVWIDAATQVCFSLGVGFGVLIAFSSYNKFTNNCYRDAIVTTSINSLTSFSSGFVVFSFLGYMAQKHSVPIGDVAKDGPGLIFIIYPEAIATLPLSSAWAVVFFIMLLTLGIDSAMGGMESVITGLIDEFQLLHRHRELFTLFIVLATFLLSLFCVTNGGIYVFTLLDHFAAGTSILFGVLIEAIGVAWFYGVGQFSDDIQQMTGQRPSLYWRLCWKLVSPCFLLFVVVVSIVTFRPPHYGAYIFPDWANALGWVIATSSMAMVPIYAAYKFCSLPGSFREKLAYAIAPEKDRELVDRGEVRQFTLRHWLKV

| SMILES | transport by DAT (DAT [1]) | transport by NET (NET [2]) | effectiveness as a substrate for the serotonin transporter (SERT [3]) | transport by SERT (SERT [3]; previously reported, U.S. Publication No. 20040115703) | [3H]5-HT uptake inhibition (SERT [4]) | potency of IDT307 accumulation for DAT (DAT [5]) | transport by DAT (DAT [5]) | potency of IDT307 accumulation for SERT (SERT [6]) | transport by SERT (SERT [6]) | potency of IDT307 accumulation for hNET (NET [7]) | transport by NET (NET [7]) | maximum absorption [8] | maximum emission [8] |
| --- | --- | --- | --- | --- | --- | --- | --- | --- | --- | --- | --- | --- | --- |
| CN(C)c1ccc(C=Cc2cc[n+](C)cc2)cc1 [ASP^+, 4-(4-dimethylaminostyrl)-N-methylpyridinium] | transported | transported | only minimally effective as a substrate | transported | – | – | – | – | – | – | – | – | – |
| CN(C)c1ccc(-c2cc[n+](C)cc2)cc1.[I-] [IDT307, 4-(4-(dimethylamino)phenyl)-1-methylpyridinium iodide] | – | – | – | – | competes for [^3H]5-HT uptake | sub-mM potency | transported | sub-mM potency | transported | sub-mM potency | transported | 420 nm | 510 nm |
